Columns and labels:
M1 muscarinic receptor = biological target: T1, M1 muscarinic receptor (Homo sapiens, UniProt P11229); experiment: Functional mobilization of intracellular calcium (FLIPR), M1-CHO cells; type: cell-based; conditions: for Emax: 100% efficacy is the maximum response obtained using Carbachol as a control; for M1 Activity: M1-CHO cells, FLIPR calcium mobilization
T1 construct: expressed in transfected cells; host or cells: CHO (M1-CHO)
T1 sequence (P11229 1-460): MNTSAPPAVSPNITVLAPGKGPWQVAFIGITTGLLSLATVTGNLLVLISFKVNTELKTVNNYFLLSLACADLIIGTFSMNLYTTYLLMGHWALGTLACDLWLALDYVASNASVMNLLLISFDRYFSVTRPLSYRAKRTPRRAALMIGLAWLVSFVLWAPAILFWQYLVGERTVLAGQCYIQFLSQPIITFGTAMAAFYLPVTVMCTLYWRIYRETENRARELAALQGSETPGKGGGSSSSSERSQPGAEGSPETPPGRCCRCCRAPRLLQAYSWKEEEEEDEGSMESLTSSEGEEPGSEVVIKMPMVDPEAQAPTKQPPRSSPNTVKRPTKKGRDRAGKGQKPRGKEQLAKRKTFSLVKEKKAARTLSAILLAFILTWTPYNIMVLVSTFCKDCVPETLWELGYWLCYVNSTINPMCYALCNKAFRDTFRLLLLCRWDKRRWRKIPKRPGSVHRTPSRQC
In short: (§1)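 CHO cells expressing M1 or M4, loaded with Fluo-3 AM or Calcium 3 dye with 1 mM probenecid, 0.5% DMSO final. Agonist mode: compound added directly; antagonist mode: 15 min pre-incubation (or co-application) before carbachol at EC80. Fluorescence recorded 60 s on FLIPR.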

M4 muscarinic receptor = biological target: T2, M4 muscarinic receptor (Homo sapiens, UniProt P08173); experiment: Functional mobilization of intracellular calcium (FLIPR), M4-CHO cells; type: cell-based; conditions: for Emax: 100% efficacy is the maximum response obtained using Carbachol as a control; for M4 Activity: M4-CHO cells, FLIPR calcium mobilization
T2 construct: expressed in transfected cells; host or cells: CHO (M4-CHO)
T2 sequence (P08173 1-479): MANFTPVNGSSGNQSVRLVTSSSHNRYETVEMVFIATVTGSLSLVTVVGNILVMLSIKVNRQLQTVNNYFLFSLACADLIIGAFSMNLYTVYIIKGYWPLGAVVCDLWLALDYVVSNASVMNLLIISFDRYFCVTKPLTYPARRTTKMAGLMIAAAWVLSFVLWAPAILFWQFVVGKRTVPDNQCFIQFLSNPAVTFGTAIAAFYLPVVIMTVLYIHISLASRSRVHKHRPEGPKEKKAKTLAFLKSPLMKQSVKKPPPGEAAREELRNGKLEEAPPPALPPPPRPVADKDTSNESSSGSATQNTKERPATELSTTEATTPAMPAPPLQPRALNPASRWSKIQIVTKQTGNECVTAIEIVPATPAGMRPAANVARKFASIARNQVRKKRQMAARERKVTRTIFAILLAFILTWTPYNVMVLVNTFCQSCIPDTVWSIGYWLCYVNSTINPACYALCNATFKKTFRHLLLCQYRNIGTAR
In short: as §1

Compound	Emax (M1 muscarinic receptor)	M1 Activity (M1 muscarinic receptor)	Emax (M4 muscarinic receptor)	M4 Activity (M4 muscarinic receptor)
CC(=O)N1Cc2ccccc2C2(CCN(Cc3ccccc3O)CC2)C1 [compound 297]	< 25%	+ (activity was measured to be greater than 5.0 μM)	< 25%	+ (activity was measured to be greater than 5.0 μM)
CC(=O)N1Cc2ccccc2C2(CCN(Cc3sc(C)nc3C)CC2)C1 [compound 301]	< 25%	+ (activity was measured to be greater than 5.0 μM)	< 25%	+ (activity was measured to be greater than 5.0 μM)
CC(=O)N1Cc2ccccc2C2(CCN(C3CCN(C(=O)O[C@H]4CCOC4)CC3)CC2)C1 [compound 302]	25 to 100%	+++ (activity was measured to be less than 1.0 μM)	25 to 100%	+++ (activity was measured to be less than 1.0 μM)
CCOC(=O)N1CCC(CN2CCC3(CC2)CN(C(=O)OC(C)C)Cc2ccccc23)CC1 [compound 309]	25 to 100%	+++ (activity was measured to be less than 1.0 μM)	25 to 100%	+++ (activity was measured to be less than 1.0 μM)
CCOC(=O)N1CCC(N2CCC3(CC2)CN(S(C)(=O)=O)Cc2ccccc23)CC1 [compound 311]	25 to 100%	+++ (activity was measured to be less than 1.0 μM)	25 to 100%	+++ (activity was measured to be less than 1.0 μM)
CC(=O)N1Cc2ccccc2C2(CCN(Cc3ccc(F)cc3F)CC2)C1 [compound 312]	< 25%	+ (activity was measured to be greater than 5.0 μM)	< 25%	+ (activity was measured to be greater than 5.0 μM)
CCOC(=O)N1CCC(N2CCC3(CC2)CN(CCC(C)C)Cc2ccccc23)CC1 [compound 313, ethyl 4-(2-isopentyl-2,3-dihydro-1H-spiro[isoquinoline-4,4′-piperidine]-1′-yl)piperidine-1-carboxylate]	> 100%	+++ (activity was measured to be less than 1.0 μM)	25 to 100%	+++ (activity was measured to be less than 1.0 μM)
CCOC(=O)N1CCC(N2CCC3(CC2)OC(=O)c2ccccc23)CC1 [compound 314, ethyl 4-(3-oxo-3H-spiro[isobenzofuran-1,4′-piperidine]-1′-yl)piperidine-1-carboxylate]	25 to 100%	+++ (activity was measured to be less than 1.0 μM)	25 to 100%	+++ (activity was measured to be less than 1.0 μM)
CCOC(=O)N1CCC(CN2CCC3(CC2)CN(C(=O)OC2CCC2)Cc2ccccc23)CC1 [compound 315]	25 to 100%	+++ (activity was measured to be less than 1.0 μM)	25 to 100%	+++ (activity was measured to be less than 1.0 μM)
CCOC(=O)N1C2CCC1CC(N1CCC3(CC1)CN(S(=O)(=O)c1cccs1)Cc1ccccc13)C2 (centres unmarked) [compound 316]	25 to 100%	+++ (activity was measured to be less than 1.0 μM)	25 to 100%	+++ (activity was measured to be less than 1.0 μM)
CC(C)OC(=O)N1C2CCC1CC(N1CCC3(CC1)CN(C(=O)N(C)C)Cc1ccccc13)C2 (centres unmarked) [compound 317]	25 to 100%	+++ (activity was measured to be less than 1.0 μM)	25 to 100%	+++ (activity was measured to be less than 1.0 μM)
CCOC(=O)N1C2CCC1CC(N1CCC3(CC1)CN(C(=O)c1ccno1)Cc1ccccc13)C2 (centres unmarked) [compound 318]	25 to 100%	+++ (activity was measured to be less than 1.0 μM)	25 to 100%	+++ (activity was measured to be less than 1.0 μM)
CCOC(=O)N1C2CCC1CC(N1CCC3(CC1)CN(C(=O)C1CCC1)Cc1ccccc13)C2 (centres unmarked) [compound 319]	25 to 100%	+++ (activity was measured to be less than 1.0 μM)	25 to 100%	+++ (activity was measured to be less than 1.0 μM)
CCOC(=O)N1CC[C@H](CN2CCC3(CC2)CN(C(C)=O)Cc2ccccc23)C1 [compound 320]	25 to 100%	+++ (activity was measured to be less than 1.0 μM)	25 to 100%	+++ (activity was measured to be less than 1.0 μM)

— patent US7863449B2, “Modulators of muscarinic receptors” (Vertex Pharmaceuticals Incorporated, priority 2004, dated 2011)
